In series [1] the test system is white blood cells (lymphocytes) in human blood. In words: Cytotoxicity towards lymphocytes in human blood. The series is classed as cell-based. As to conditions: human blood exposed 24 hours, lymphocyte survival, effective concentrations (<20 μM) (FIG. 11). On the procedure:
Human blood was exposed to TCH-013 (imidazoline 1) for 24 hours at various concentrations and the lymphocytes were evaluated for survival.
(§1) Given the critical role NF-κB-mediated IL-6 production plays in the growth and […] of multiple myeloma, we investigated the use of TCH-013 in somewhat more detail in a MM cell line (RPMI-8226).

In series [2] the test system is RPMI-8226 cells. The series can be described thus: Cell death in multiple myeloma cells, MTS assay. The series is classed as cell-based. The following applies: Homo sapiens, RPMI-8226, 24 h. The protocol:
RPMI-8226 cells were treated with various concentrations of TCH-013 in duplicate and incubated for 24 hours. Percent survival was extrapolated based on mitochondrial activity as determined by MTS assay.
as §1

Consider 3 molecules from patent US8252942B2, “Substituted imidazoline compounds” (Board of Trustees of Michigan State University, priority 2008, dated 2012).

The structures appear in SMILES notation.

As for `CCOC(=O)[C@@]1(c2ccccc2)N=C(c2ccccc2)N(Cc2ccccc2)[C@H]1c1ccccc1` (racemic) [TCH-013], the “cytotoxicity towards white blood cells” value in series [1] was “no significant cytotoxicity”. Moreover, in series [2], it took 4 µM to reach half-maximal cytotoxicity (CC50).
On to `COc1cccc2c1C(=O)c1c(O)c3c(c(O)c1C2=O)C[C@@](O)(C(=O)CO)C[C@@H]3O[C@H]1C[C@H](N)[C@H](O)[C@H](C)O1` [doxorubicin], for which it took 1.2 µM to reach half-maximal cytotoxicity in series [2] (CC50).
As to `N[C@@H](Cc1ccc(N(CCCl)CCCl)cc1)C(=O)O` [melphalan], in series [2], the 50% cytotoxic concentration (CC50) (usually the concentration giving 50% cytotoxicity) came out at 30.6 µM.
